From patent US8623909B2, “Prophylactic/therapeutic agents for lifestyle-related diseases” (priority 2008, dated 2014)
Marks after values point to notes of the source that are not given here.

Tests used:
[1] = tested on: ORX rats; test: Prostate weight in ORX rats (virilization effect); format: in vivo, rat; details: for Prostate weight: 21 days, solvent 10.2, sham 132.5; for Change in prostate weight (in words): doses of 1 to 10 mg/kg body weight
Description: The virilization effect of compounds was studied by using the changes in prostate weight during administration of the compounds to ORX rats as an indicator of virilization effect.
(§1) 11-week-old, male Sprague-Dawley (SD) rats (320 to 340 g, purchased from Charles River Japan) were housed for 1 week in a room maintained at a light-dark cycle of 12 hours per day and controlled at a set temperature and humidity while allowing free access to a commercially available standard rodent diet and water.
(§2) After housing the animals, the animals were anesthetized with ether, and underwent bilateral orchiectomy (orchiectomized rats: ORX) or a sham treatment. After awaking from the anesthesia, the animals were assigned to test groups of 3 to 5 animals each. Starting on the day after surgery, the animals were subcutaneously injected once a day with an injection solution of the test compound (prepared by dissolving the test compound in a small amount of DMSO and diluting with olive oil for animal testing (consisting of 95% olive oil and 5% DMSO)) at the rate of 0.1 ml/100 g of body weight. After 21 days, the rats were sacrificed by exsanguination from the abdominal artery, the ventral prostates and anal levator muscle were excised and weighed followed by immersing in RNAlater (Nacalai Tesque) for extraction of RNA. In addition, soft tissue was removed from the right femur, and immersed in 75% ethanol followed by storage for subsequent measurement of the bone mineral density. Moreover, liver and visceral fat tissue were collected and immersed in RNAlater for RNA extraction.

[2] = tested on: ORX rats; test: Plasma FSH concentration in ORX rats; format: in vivo, rat; details: for Effect on FSH levels (in words): dose of 1 or 10 mg/kg; for Plasma FSH concentration: solvent 44.1, sham 12.1
From the text: as §2, with “Starting on the day after surgery, the animals were subcutaneously injected once a day with an injection solution of the test compound (prepared by dissolving the test compound in a small amount of DMSO and diluting with olive oil for animal testing (consisting of 95% olive oil and 5% DMSO)) at the rate of 0.1 ml/100 g of body weight.” left out
Characteristics of the effect of compounds on the pituitary gland were investigated by measuring plasma concentrations of LH and FSH in ORX rats treated in the aforementioned section (4)-1).

[3] = tested on: ORX rats; test: Plasma triglyceride level in ORX rats; format: in vivo, rat; details: for Effect on triglyceride levels (in words): 1 and 10 mg/Kg; for Plasma triglyceride concentration: solvent 130.7, sham 236.5
From the text: as §2, with “Starting on the day after surgery, the animals were subcutaneously injected once a day with an injection solution of the test compound (prepared by dissolving the test compound in a small amount of DMSO and diluting with olive oil for animal testing (consisting of 95% olive oil and 5% DMSO)) at the rate of 0.1 ml/100 g of body weight.” left out
Plasma triglyceride and cholesterol levels were measured to characterize the metabolic profiles of ORX rats treated in the aforementioned section (4)-1).

[4] = tested on: ORX rats; test: Anal levator muscle weight in ORX rats (anabolic effect); format: in vivo, rat; details: for Anal levator muscle weight: 21 days, solvent 41.6, sham 73.1; for Change in anal levator muscle weight (in words): dihydrotestosterone 1 and 10 mg/kg, compound of formula (Ia) 10 mg/kg
Description: as §1, §2
The anabolic effect of compounds was studied by using as indicators changes in anal levator muscle weight and bone mineral density (BMD) of the femur and vertebra in the ORX rats treated in the aforementioned section (4)-1).
Anal levator muscle is a typical skeletal muscle localized around the rat rectum, and is considered to be sensitive to male steroid hormone. Although the anal levator muscle is considerably smaller in castrated rats as compared with normal male rats, its weight is well known to be able to be restored to normal by administration of androgen (J. Pharmacol. Exp. Ther., 91, 38-44). The results of measuring the weights of the anal levator muscle in the ORX rats obtained in section (4)-1) are shown in the following Table 7.

[5] = tested on: PSA promoter; test: PSA promoter-luciferase activity in LNCaP cells (dual-luciferase reporter); format: cell-based, human
Description: Plasmid pCMV-hAR was constructed based on a method previously reported by the inventors of the present invention (J. Biol. Chem., 282, 7329-7338). In addition, reporter plasmids consisting of PGL3-PSA (human) and PGL3-UCP-1 (mouse) were also constructed based on a method previously reported by the inventors of the present invention (Diabetes, 54, 1000-1008). Furthermore, pRL-SV40 was acquired commercially.
NIH-3T30-L1 mouse preadipocytes were cultured in Dulbecco's modified Eagle's medium (Sera Laboratories) containing 10% fetal calf serum. In addition, cells of human prostate cancer cell line LNCap were cultured in RPMI 1640 medium (Sigma) containing 10% fetal calf serum. Furthermore, these two types of cell lines were obtained from the American Type Culture Collection (Manassas).
The NIH-3T3-L1 cells of 2) above were co-transfected with pCMV-hAR, pRL-SV40 and PGL3-UCP-1 (mouse) in a 24-well plate using an Effectene Transfection Kit (Qiagen) and a Fugene HD Kit (Roche Diagnostics). In addition, the LNCaP cells of 2) above were similarly co-transfected with pCMV-hAR, pRL-SV40 and PGL3-PSA (human).
4) Measurement of Effect on PSA Promoter-Luciferase Activity in LNCaP Cells
The LNCaP cells co-transfected in 3) above were cultured for 24 hours in DMEM or RPMI 1640 containing 10% fetal calf serum treated with dextran-charcoal and a test compound (dissolved in a small amount of DMSO) 24 hours after transfection. Subsequently, the activities of firefly luciferase and Renilla luciferase were assayed in a 24-well plate using the Dual-Luciferase Reporter Assay System (Promega) in accordance with the protocol of Minilumat LB9507 (Berthold Technologies). Furthermore, the value of firefly luciferase activity were normalized based on the internal Renilla control, and were presented as relative luciferase activity.

[6] = tested on: SREBP-1c mRNA; test: SREBP-1c mRNA level in liver and visceral fat of ORX rats; format: in vivo, rat
From the text: as §2, with “Starting on the day after surgery, the animals were subcutaneously injected once a day with an injection solution of the test compound (prepared by dissolving the test compound in a small amount of DMSO and diluting with olive oil for animal testing (consisting of 95% olive oil and 5% DMSO)) at the rate of 0.1 ml/100 g of body weight.” left out
Total RNA in various tissues of the ORX rats was isolated using the RNeasy Mini Kit or RNeasy Fibrous Tissue Mini Kit (Qiagen). 1 μg of this total RNA was subjected to reverse transcription using the QuantiaTect Reverse Transcription Kit (Qiagen). Next, cDNA was subjected to real-time PCR analysis using LightCycler (Roche Diagnostics) and each of the transcription products was quantified. Furthermore, PCR was carried out in 20 μl of a reaction mixture under the following conditions using SYBR Premix Ex Taq (Takara Biotechnology): 50 cycles consisting of denaturation for 5 seconds at 95° C., annealing for 20 seconds at 60° C. and elongation for 25 seconds at 72° C. In addition, glyceraldehyde-3-phosphate dehydrogenase (GAPDH) mRNA was simultaneously amplified as an internal standard, and the real-time PCR value of each transcription product were calculated as a relative value based on GAPDH.
In addition, mRNA levels of insulin receptor substrate 2 (IRS-2) in the liver were also measured.

[7] = liver, 1 mg/Kg, solvent 0.7, sham 1.0
[8] = liver, 10 mg/Kg, solvent 0.7, sham 1.0
[9] = visceral fat, 1 mg/Kg, solvent 1.0, sham 1.0
[10] = visceral fat, 10 mg/Kg, solvent 1.0, sham 1.0

C[C@]12CCC(=O)C[C@@H]1CC[C@@H]1[C@@H]2CC[C@]2(C)[C@@H](O)CC[C@@H]12 [Dihydrotestosterone, 5α-dihydrotestosterone, reference compound]
Prostate weight ([1]; 1 mg/Kg s.c. once a day): 168.6**^,## mg/100 g of body weight
Prostate weight ([1]; 10 mg/Kg s.c. once a day): 216.9*^,## mg/100 g of body weight
Change in prostate weight (in words) [1]: increased dose-dependently
Effect on FSH levels (in words) [2]: inhibited to levels observed in the untreated control group
Effect on triglyceride levels (in words) [3]: raised triglyceride levels
Anal levator muscle weight ([4]; 1 mg/Kg s.c. once a day): 93.8^## mg/100 g body weight
Anal levator muscle weight ([4]; 10 mg/Kg s.c. once a day): 120.6**^,## mg/100 g body weight
Change in anal levator muscle weight (in words) [4]: weights increased beyond those in the case of the sham treated rats
PSA promoter activity stimulation ([5]; 10^−7 M or 10^−8 M): roughly 9 fold
SREBP-1c mRNA/GAPDH mRNA level [6, 7]: 3.4
SREBP-1c mRNA/GAPDH mRNA level [6, 8]: 3.2
SREBP-1c mRNA/GAPDH mRNA level [6, 9]: 1.8
SREBP-1c mRNA/GAPDH mRNA level [6, 10]: 2.2

CC(=O)[C@H]1CCC2C3CCc4c(C)cccc4C3CC[C@@]21C (stereo partly shown) [Compound of formula (Ia)]
Prostate weight ([1]; 1 mg/Kg s.c. once a day): 11.1** mg/100 g of body weight
Prostate weight ([1]; 10 mg/Kg s.c. once a day): 13.3** mg/100 g of body weight
Change in prostate weight (in words) [1]: did not increase
Plasma FSH concentration ([2]; 1 mg/Kg): 48.7* ng/mL
Plasma FSH concentration ([2]; 10 mg/Kg): 46.3* ng/mL
Effect on FSH levels (in words) [2]: did not have any effect on FSH
Plasma triglyceride concentration ([3]; 1 mg/Kg): 41.3** mg/dL
Plasma triglyceride concentration ([3]; 10 mg/Kg): 39.3** mg/dL
Effect on triglyceride levels (in words) [3]: lowered triglyceride levels considerably
Anal levator muscle weight ([4]; 1 mg/Kg s.c. once a day): 59.1^ mg/100 g body weight
Anal levator muscle weight ([4]; 10 mg/Kg s.c. once a day): 66.2* mg/100 g body weight
Change in anal levator muscle weight (in words) [4]: increased significantly to a similar level to that observed in the sham treatment group
Value of luciferase transcription activity (PSA promoter, relative luciferase activity) ([5]; 10^−5M, 24 hours, control (DMSO) 1.0): 1.3
SREBP-1c mRNA levels (in words) ([6]; liver and visceral fat): lower in both tissues
SREBP-1c mRNA/GAPDH mRNA level [6, 7]: 0.8
SREBP-1c mRNA/GAPDH mRNA level [6, 8]: 0.6
SREBP-1c mRNA/GAPDH mRNA level [6, 9]: 0.8
SREBP-1c mRNA/GAPDH mRNA level [6, 10]: 0.5
